According to PMC6450887, “Metabolic resistance of the D-peptide RD2 developed for direct elimination of amyloid-β oligomers” (Scientific Reports, 2019):
Non-standard residues stand in square brackets, D forms with d. Residues, ends and D or L forms follow the SMILES beside them.

Experiments:
CYP3A4 = CYP3A4 (Homo sapiens, UniProt P08684); experiment: CYP isoform inhibition in human liver microsomes (Cyprotex)
Method: (§2) The experiments were performed by Cyprotex. […] The reactions were terminated by methanol and the generated metabolites were monitored by LC-MS/MS or fluorescence. […] All assays were performed sevenfold. […] For all other substrates, the termination plates were centrifuged at 2,500 rpm and 4 °C for 30 min and aliquots of the supernatants were combined and transferred to fresh 96-well plates. Formic acid in deionized water (final concentration 0.1%) containing internal standard was added to the supernatants prior to cassette analysis by LC-MS/MS. A decrease in the formation of the metabolite compared to the vehicle control was used to calculate the IC50 values.

[1] = tested on: Rat PC12 (pheochromocytoma) cells; experiment: MTT cell viability assay; type: cell-based; conditions: rat, 24 h, 2 µM
Method: (§1) Rat PC12 (pheochromocytoma) cells (Leibniz Institute DSMZ, Braunschweig, Germany) were cultivated in Dulbecco’s Modified Eagle Medium (DMEM) supplemented with 10% fetal bovine serum, 5% horse serum and 1% penicillin-streptomycin. 10,000 cells per well were seeded on collagen A-coated 96-well plates (Thermo Fisher Scientific, Waltham, USA) and incubated in a 95% humidified atmosphere with 5% CO2 at 37 °C for 24 h. Samples with untreated RD2 and RD2 or HSM-3 purified from human liver microsomes (see 2.8) in 10 mM sodium phosphate buffer (pH 7.4) were prepared. Buffer without peptides and Triton X-100 (cytotoxic compound) served as controls. The samples were added to the PC12 cells in quadruple and incubated in 95% humidified atmosphere with 5% CO2 at 37 °C for 24 h. Final concentrations were 2 µM untreated RD2, purified RD2, purified HSM-3 and 0.125% Triton X-100. Cell viability was then measured using the Cell Proliferation Kit I (MTT) (Roche, Basel, Switzerland) according to the manufacturer’s instruction. The final absorbance of the formazan product was determined as the absorbance at 570 nm subtracted by the absorbance at 660 nm. All results were normalized to cells that were treated with buffer only. The experiments were performed in triplicate.

MTT cell viability assay = type: cell-based, rat; conditions: rat, cell viability
Method: as §1

rat = tested on: rat; parameters: method as in complete study will be published elsewhere; conditions: oral, up to high doses, ref complete study will be published elsewhere; cited from earlier work
CYP2C9 = CYP2C9 (Homo sapiens, UniProt P11712); experiment: CYP isoform inhibition in human liver microsomes (Cyprotex)
CYP2C9, sequence (P11712 whole entry, canonical isoform): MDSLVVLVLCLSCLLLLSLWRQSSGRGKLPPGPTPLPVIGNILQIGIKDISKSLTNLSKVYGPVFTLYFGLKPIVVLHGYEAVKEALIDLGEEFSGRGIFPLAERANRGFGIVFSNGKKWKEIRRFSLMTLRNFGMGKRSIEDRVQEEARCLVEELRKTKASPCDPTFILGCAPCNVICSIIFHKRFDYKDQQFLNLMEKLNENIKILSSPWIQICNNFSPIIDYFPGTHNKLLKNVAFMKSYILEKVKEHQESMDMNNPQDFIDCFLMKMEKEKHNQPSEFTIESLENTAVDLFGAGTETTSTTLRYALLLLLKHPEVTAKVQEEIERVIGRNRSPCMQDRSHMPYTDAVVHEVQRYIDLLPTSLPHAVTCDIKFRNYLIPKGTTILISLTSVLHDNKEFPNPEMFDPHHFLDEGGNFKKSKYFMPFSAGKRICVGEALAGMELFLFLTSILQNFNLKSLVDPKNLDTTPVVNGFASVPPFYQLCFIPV
Method: as §2

CYP2C19 = CYP2C19 (Homo sapiens, UniProt P33261); experiment: as above
CYP2C19, sequence (P33261 whole entry): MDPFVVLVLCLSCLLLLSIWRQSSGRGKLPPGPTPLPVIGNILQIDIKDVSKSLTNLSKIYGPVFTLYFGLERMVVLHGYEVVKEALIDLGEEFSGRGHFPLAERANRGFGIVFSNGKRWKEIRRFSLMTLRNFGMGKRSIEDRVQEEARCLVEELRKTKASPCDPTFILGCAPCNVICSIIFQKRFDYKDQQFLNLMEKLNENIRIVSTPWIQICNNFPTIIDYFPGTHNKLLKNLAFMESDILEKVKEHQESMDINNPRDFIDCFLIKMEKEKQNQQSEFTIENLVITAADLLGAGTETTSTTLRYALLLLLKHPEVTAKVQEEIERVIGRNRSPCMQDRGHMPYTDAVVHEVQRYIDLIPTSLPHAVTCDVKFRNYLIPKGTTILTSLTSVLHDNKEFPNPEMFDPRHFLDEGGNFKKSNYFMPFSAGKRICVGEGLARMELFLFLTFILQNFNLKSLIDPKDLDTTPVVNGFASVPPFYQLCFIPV
Method: as §2

CYP1A = molecular target: T1, CYP1A (Homo sapiens, UniProt P05177); experiment: as above
T1 sequence (P05177 2-516): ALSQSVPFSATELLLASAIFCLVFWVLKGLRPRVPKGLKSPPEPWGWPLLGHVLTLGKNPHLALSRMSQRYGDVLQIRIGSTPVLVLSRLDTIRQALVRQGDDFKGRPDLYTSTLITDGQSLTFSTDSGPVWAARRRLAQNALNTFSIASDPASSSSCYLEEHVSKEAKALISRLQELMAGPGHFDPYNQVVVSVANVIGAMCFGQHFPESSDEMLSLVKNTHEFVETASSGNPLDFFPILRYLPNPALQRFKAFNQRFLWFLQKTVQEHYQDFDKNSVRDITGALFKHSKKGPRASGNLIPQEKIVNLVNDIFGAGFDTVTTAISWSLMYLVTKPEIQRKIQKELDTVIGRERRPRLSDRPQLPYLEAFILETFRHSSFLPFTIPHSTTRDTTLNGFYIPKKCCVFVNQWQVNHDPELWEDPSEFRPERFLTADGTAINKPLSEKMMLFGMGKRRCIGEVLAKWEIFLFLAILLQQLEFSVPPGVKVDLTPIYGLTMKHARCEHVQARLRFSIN
Method: as §2

CYP3A4, sequence (P08684 whole entry, canonical isoform): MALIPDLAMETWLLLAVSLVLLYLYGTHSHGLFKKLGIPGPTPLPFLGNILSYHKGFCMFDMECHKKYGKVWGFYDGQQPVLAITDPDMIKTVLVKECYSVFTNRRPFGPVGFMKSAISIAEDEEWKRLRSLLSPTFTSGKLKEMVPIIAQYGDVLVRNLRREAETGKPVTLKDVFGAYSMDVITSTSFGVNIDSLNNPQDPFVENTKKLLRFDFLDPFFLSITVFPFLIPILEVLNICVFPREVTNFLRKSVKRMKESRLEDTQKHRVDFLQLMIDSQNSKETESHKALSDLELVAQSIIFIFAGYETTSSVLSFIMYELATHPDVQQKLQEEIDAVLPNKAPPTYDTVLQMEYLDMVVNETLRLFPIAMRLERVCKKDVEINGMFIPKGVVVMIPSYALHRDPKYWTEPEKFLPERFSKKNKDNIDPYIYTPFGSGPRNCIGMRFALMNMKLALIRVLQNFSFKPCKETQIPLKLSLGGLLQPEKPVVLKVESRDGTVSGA

CC(C)C[C@@H](NC(=O)[C@H](NC(=O)[C@H]1CCCN1)[C@H](C)O)C(=O)N[C@H](Cc1c[nH]cn1)C(=O)N[C@@H](C(=O)N[C@H](Cc1c[nH]cn1)C(=O)N[C@H](CC(N)=O)C(=O)N[C@H](CCCNC(=N)N)C(=O)N[C@H](CCCNC(=N)N)C(=O)N[C@H](CCCNC(=N)N)C(=O)N[C@H](CCCNC(=N)N)C(=O)N[C@H](CCCNC(=N)N)C(N)=O)[C@H](C)O [RD2, ptlhthnrrrrr] (H-[dP][dT][dL][dH][dT][dH][dN][dR][dR][dR][dR][dR]-NH2)
inhibition of CYP3A4 (CYP3A4; concentration range 0 to 25 µM): did not inhibit
inhibition at 0.25 µM (CYP3A4; human, human liver microsomes): -0.223%
inhibition at 1 µM (CYP3A4; human, human liver microsomes): 5.77%
inhibition at 2.5 µM (CYP3A4; human, human liver microsomes): 1.71%
inhibition at 10 µM (CYP3A4; human, human liver microsomes): -3.08%
inhibition at 25 µM (CYP3A4; human, human liver microsomes): -12%
cell viability [1]: 93 ± 6%
viability at 24 h, 2 µM (MTT cell viability assay): 99 ± 4%
toxic effects of orally administered RD2 (rat): does not cause toxic effects up to high doses
inhibition of CYP2C9 (CYP2C9; concentration range 0 to 25 µM): did not inhibit
inhibition at 0.25 µM (CYP2C9; human, human liver microsomes): 6.15%
inhibition at 1 µM (CYP2C9; human, human liver microsomes): -0.871%
inhibition at 2.5 µM (CYP2C9; human, human liver microsomes): 0.607%
inhibition at 10 µM (CYP2C9; human, human liver microsomes): -7.38%
inhibition at 25 µM (CYP2C9; human, human liver microsomes): -26.8%
inhibition of CYP2C19 (CYP2C19; concentration range 0 to 25 µM): did not inhibit
inhibition at 0.25 µM (CYP2C19; human, human liver microsomes): 7.64%
inhibition at 1 µM (CYP2C19; human, human liver microsomes): 2.47%
inhibition at 2.5 µM (CYP2C19; human, human liver microsomes): 2.54%
inhibition at 10 µM (CYP2C19; human, human liver microsomes): -5.77%
inhibition at 25 µM (CYP2C19; human, human liver microsomes): -45.5%
inhibition of CYP1A (CYP1A; concentration range 0 to 25 µM): did not inhibit
inhibition at 0.25 µM (CYP1A; human, human liver microsomes): 6.18%
inhibition at 1 µM (CYP1A; human, human liver microsomes): 9.42%
inhibition at 2.5 µM (CYP1A; human, human liver microsomes): 1.34%
inhibition at 10 µM (CYP1A; human, human liver microsomes): -0.842%
inhibition at 25 µM (CYP1A; human, human liver microsomes): -0.198%
